In patent US7799816B2, “Imidazolinylmethyl aryl sulfonamide” (Roche Palo Alto LLC, priority 2008, dated 2010):

Assays:
alpha-1A adrenoceptors = molecular target: T1, alpha-1A adrenoceptors (Homo sapiens, UniProt P35348); assay: alpha-1A adrenoceptor partial agonist activity (intrinsic activity and pEC50); format: biochemical
T1 sequence (P35348 1-466): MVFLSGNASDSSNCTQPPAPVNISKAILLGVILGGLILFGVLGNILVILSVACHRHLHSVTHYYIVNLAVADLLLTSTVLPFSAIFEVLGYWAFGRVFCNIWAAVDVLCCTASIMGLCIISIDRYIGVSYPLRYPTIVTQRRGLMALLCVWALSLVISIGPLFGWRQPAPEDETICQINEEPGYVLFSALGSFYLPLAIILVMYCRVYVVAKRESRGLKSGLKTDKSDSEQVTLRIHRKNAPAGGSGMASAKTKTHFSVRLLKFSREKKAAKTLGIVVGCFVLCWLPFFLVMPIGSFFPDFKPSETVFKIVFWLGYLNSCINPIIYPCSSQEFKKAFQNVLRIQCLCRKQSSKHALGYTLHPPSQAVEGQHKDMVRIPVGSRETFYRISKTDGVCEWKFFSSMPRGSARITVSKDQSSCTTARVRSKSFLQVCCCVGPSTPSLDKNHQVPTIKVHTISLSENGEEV

[1] = tested on: Female Yucatan Micro-Swine; assay: Conscious pig model (IUP, MAP, HR); format: in vivo
Description: In general, IUP is the intraurethral pressure and is measured as the 2 minute mean from the first peak of the urethral response (FIG. 1). MAP is the mean arterial blood pressure and is measured as the average blood pressure during the 2 minute section where IUP is measured. The durability is the slope of the IUP response in mmHg/min and is calculated immediately after the 2 minute IUP response for 5 minutes (2-7 minutes post the first peak) for the top 3 doses.
Conscious Pig Materials and Methods
Sling Training: Female Yucatan Micro-Swine were trained to stay in a sling for up to 4 hours. Swine were exposed to progressively longer sling durations per IACUC sling-training guideline.
Surgical Instrumentation: Female Yucatan Micro-swine were instrumented with a telemetry device with both pressure and ECG monitoring capabilities (Data Sciences International St Paul Minn.). In addition, a Bardport low profile titanium VAP was placed subcutaneously for blood sampling. All devices were implanted by the surgical veterinarian at Roche Palo Alto. Briefly, the telemetry probe body was placed subcutaneously in the cervical region. The intra-arterial pressure catheter was advanced via the superficial cervical artery into the subclavian artery for blood pressure measurement. The ECG leads were placed intra-muscularly: one in the intercostal muscle between the T8-T10 regions on the left side, and the other in the intercostal muscles between the T1-T3 regions on the right side. The VAP was placed subcutaneously in the neck region, with the catheter advanced into the jugular vein. […]
Experiment: After the swine was fully awake and stable (usually approximately 1 hour post wake up), baseline blood pressure, IUP, and heart rate parameters were determined. […]
Data Generating and Analysis Systems: Cardiovascular readings were generated by the TL11M3-D70-PCP (Data Sciences International, St. Paul, Minn.) telemetry device and associated hardware. […] IUP was monitored by a solid state catheter connected to a TA6000 Polygraph (Data Sciences International, St. Paul, Minn.). […]

For `CS(=O)(=O)Nc1cc(F)c(CC2=NCCN2)c(Br)c1Br` [Formula I, N-[2,3-Dibromo-4-(4,5-dihydro-1H-imidazol-2-ylmethyl)-5-fluoro-phenyl]-methanesulfonamide], which “intrinsic activity, or efficacy, as a partial agonist” value (alpha-1A adrenoceptors; ideally between 0.35 to 0.60) is on record?
Its value is 0.38.

And the EC50 (alpha-1A adrenoceptors; read-out: affinity, or pEC50 value (converted))?
Its EC50 is 200 nM.

What about the “maximum arterial blood pressure effect” value [1] of the same compound?
Its value is “low maximum arterial blood pressure effect”.

And the “selectivity for enhancement of intraurethral pressure (IUP) over blood pressure (MAP)” value [1]?
The value was “selectivity for enhancement of intraurethral pressure (IUP) over blood pressure (MAP)”.

What about the “durability of IUP response over time” value ([1]; iv infusion, compared to analogue compound (FIG. 1b vs FIG. 1c)) of the same compound?
The value was “unexpectedly increased durability of IUP response over time”.
